The experiment concerns eIF2-GTP-Met-tRNAi ternary complex. As to the kind of experiment: Ternary complex assay (dual luciferase, firefly/renilla ratio) in stable KLN-tTA/pBISA-DL(ATF-4) cells; HTS and hit confirmation. Conditions: confirmed hits of the screen (Table 5); for Activity 2.5 uM: compound at 2.5 uM; for Activity 10 uM: compound at 10 uM; for Activity 5 uM: compound at 5 uM. The arrangement: Activity 10 uM / Activity 2.5 uM / Activity 5 uM: unit not given here. The format is cell-based, mouse. From the text: For assay development, a bi-directional plasmid was designed in which a common promoter/enhancer complex drives the transcription of firefly luciferase (F-luc) ORF fused to the 5′ untranslated region (UTR) of ATF-4, and of the renilla luciferase (R-luc) ORF fused to a 90-nucleotide 5′ UTR derived from the plasmid (FIG. 6A). Because the tetracycline-regulated transactivator ((tTA), required for driving transcription from this vector) is not normally expressed in the mammalian cells, stable KLN cancer cells were constructed that expressed tTA (KLN-tTA).
The KLN-tTA colonies that drove expression of reporter genes from pBISA-DL plasmid were selected by transient transfection and dual luciferase assay. One of these KLN-tTA cell lines was transfected with the pBISA-DL^(ATF-4) expression vector, stable colonies were selected by dual luciferase assay and expanded. To determine if reduced availability of the eIF2*GTP*Met-tRNAi ternary complex increased the translation of firefly luciferase and decreased translation of renilla luciferase, selected KLN-tTA/pBISA-DL^(AFT-4) colonies were treated with thapsigargin (TG) or tunicamycin (TU), two agents known to cause phosphorylation of eIF2α.
This assay was then adapted for high throughput screening in 96 and 384 well plates. This was done by evaluating the cell density, length of exposure to compounds, DMSO tolerance and optimum firefly and renilla substrate. We then challenged these cells with thapsigargin or DMSO. […] Cell-based assays usually have higher variation than homogeneous in vitro assays due to position effect in the plate, and other variables associated with handling of cells and the plates.
Screening was conducted in 384 well white opaque plates (Nalge Nunc), 100 μl volume RPMI+10% fetal bovine serum. Cells were plated at the sub-confluent density of 10,000 cells/well, and allowed to attach for a period of 16-18 hours at 37° C., 5% CO2. Compounds were added as 1 μl of a 1 mM DMSO stock solution for a final screening concentration of 10 μM, using low-volume tips for transfer (Molecular Bioproducts). Cells were then incubated in the presence of compound for an additional sixteen hours, again at 37° C., 5% CO2. Following incubation 70 μl of the culture medium was removed from each well to allow for reagent addition and plates were allowed to equilibrate to room temperature for thirty minutes. Firefly luciferase reporter activity was then read by the addition of thirty microliters of Dual Glo Luciferase reagent (Promega), followed by one hour incubation at room temperature to allow for adequate signal buildup. Luminescence counting was conducted on a Microbeta Trilux using a 1 second read time. Renilla luciferase reporter activity was measured following addition of 30 μl Stop and Glo Luciferase reagent (Promega) and incubation identical to the one carried out for the firefly luciferase one.
Compound scores were interpreted as firefly luciferase activity divided by renilla luciferase activity, normalized to the plate's DMSO control. […] All data analysis was conducted using the BioAssay HTS software package (CambridgeSoft).
102,709 compounds in the NCI Open Chemical Repository were then screened using this HTS assay. […] Initial hits were confirmed by repeating the same dual luciferase assay in 96 well plates. Briefly, 20,000 cells/well were plated in triplicate for each concentration (10, 5 and 2.5 μM) of the compounds.

Consider `COc1ccc2nc3cc(Cl)ccc3c(NCCCCN(C)C)c2c1.Cl` [Compound 32929], for which the “Activity 2.5 uM” value was found to be 0.35 and the “Activity 10 uM” value came to 5.76.
In the case of `Cc1cc[n+](C2CCC3(C)C(=CCC4C3CCC3(C)C(C(C)CCCC(C)C)CCC43)C2)cc1.Cc1ccc(S(=O)(=O)[O-])cc1` (stereo not shown) [Compound 32994], the “Activity 2.5 uM” value turned out to be 2.83 and the “Activity 10 uM” value is given as 6.52.
For `CC(C)CCCC(C)C1CCC2C3CC=C4CC([n+]5cccc6ccccc65)CCC4(C)C3CCC12C.Cc1ccc(S(=O)(=O)[O-])cc1` (stereo not shown) [Compound 32999], in that order: 2.41 and 6.87.
For `COc1ccc2nc(CCc3ccccc3)ccc2c1` [Compound 35424], in that order: 2.55 and 3.07.
In the same order, the values of `CN1c2ccccc2C(c2ccccc2)c2ccc(Nc3ccccc3)cc21.Cl` (stereo not shown) [Compound 35730] are 5.35 and 6.76.
For the molecule `Cc1ccc(C(CN(C)C)C(=O)c2ccccc2)cc1C.Cl` (stereo not shown) [Compound 36684], the “Activity 2.5 uM” value came out at 0.76 and the “Activity 10 uM” value was found to be 4.2.
Take `O=C1c2ccccc2C(=O)C2CC(c3ccccc3)=CCC12` (stereo not shown) [Compound 38062]: the “Activity 2.5 uM” value came out at 2.61 and the “Activity 10 uM” value came to 5.58.
For `CC1=CC(=O)C(C(C)C)=CC1=Nc1ccc(N(C)C)cc1` [Compound 39901], in that order: 1.41 and 4.1.
Take `CC(=O)Nc1ccccc1[As](O[As](c1ccccc1)c1ccccc1NC(C)=O)c1ccccc1` (stereo not shown) [Compound 42108]: the “Activity 10 uM” value is on record as 3.7.
For the molecule `O=C(Nc1ccc2ccccc2c1)c1cc2ccccc2cc1O` [Compound 42112], the “Activity 2.5 uM” value is recorded as 3.76 and the “Activity 10 uM” value was determined as 3.76.
For the molecule `CCN1/C(=C/c2cc(C)nc(-c3ccccc3)[n+]2C)C=Cc2ccccc21.[Cl-]` [Compound 43683], the “Activity 2.5 uM” value is given as 3.73 and the “Activity 10 uM” value was 5.26.
With `CC(=O)Nc1cc(OC(C)=O)c2ccccc2c1OC(C)=O` [Compound 45171], the “Activity 2.5 uM” value came to 3.08.
As to `COc1ccc2c3c(ccc2c1)[C@@H]1C/C(=C(\OC(C)=O)C(F)(F)F)C(=O)[C@@]1(C)CC3` [Compound 45226], the “Activity 2.5 uM” value worked out at 3.03 and the “Activity 10 uM” value is listed as 7.27.
For `CC(=O)OC1CCC2(C)C3CCC4(C)C(CCC4(Br)C(=O)CBr)C3CC(Br)C2(Br)C1` (stereo not shown) [Compound 45884], in that order: 0.47 and 16.23.
In the same order, the values of `Oc1cccc(-c2ccc(-c3ccccc3)cc2)c1` [Compound 47145] are 3.4 and 5.16.
In the same order, the values of `N#C/C(=C(\c1ccccc1)c1ccccn1)c1ccccc1` [Compound 50915] are 1.11 and 7.81.
Regarding `O=Nc1c(O)ccc2ccccc12.[Fe].[Na+]` [Compound 51522], the “Activity 2.5 uM” value came to 1.66 and the “Activity 10 uM” value is 10.99.
In the same order, the values of `Cc1cc2c(C(C)C)c(O)c(O)c(C=Nc3cc(C(F)(F)F)ccc3Cl)c2c(O)c1-c1c(C)cc2c(C(C)C)c(O)c(O)c(C=Nc3cc(C(F)(F)F)ccc3Cl)c2c1O` [Compound 52531] are 0.8 and 5.18.
Take `O=C(Nc1ccc(Cl)cc1)C(Cl)C(Cl)c1ccccc1` (stereo not shown) [Compound 54895]: the “Activity 5 uM” value worked out at 4.288 and the “Activity 10 uM” value is recorded as 4.975.
Consider `O=C(/C=C/c1ccc(Cl)cc1)CC(Cl)c1ccc(Cl)cc1` (stereo not shown) [Compound 54905], for which the “Activity 5 uM” value is recorded as 11.56 and the “Activity 10 uM” value worked out at 16.011.
For `CCCCCCCCCCCCCCCC[N+]1(C)CC2CCCCC2C1` (stereo not shown) [Compound 55237], in that order: 3.4 and 6.6.
On to `CCCCCCCCCCCCCCCC[N+]1(CCCCCCCCCC)CC2CCCCC2C1.[I-]` (stereo not shown) [Compound 55240], for which the “Activity 5 uM” value is reported as 4.2 and the “Activity 10 uM” value came to 5.2.
With `Cc1ccc(-c2cc(-c3ccccc3)[s+]c3ccc(C)cc23)cc1` [Compound 55867], the “Activity 5 uM” value is given as 1.1 and the “Activity 10 uM” value is reported as 3.2.
For `C[N+](C)=C1C=CC(=C2C=C(c3ccccc3)Oc3ccccc32)C=C1` [Compound 55869], in that order: 13.24 and 13.613.
In the same order, the values of `O=C(C[Si](CC(=O)c1cccc(C(F)(F)F)c1)CC(=O)c1cccc(C(F)(F)F)c1)c1cccc(C(F)(F)F)c1` [Compound 55879] are 1.7 and 3.8.
For `Cc1cc(C(O)(c2ccc(N)cc2)c2ccc(N)cc2)ccc1N.Nc1ccc(C(O)(c2ccc(N)cc2)c2ccc(N)cc2)cc1` [Compound 56345], in that order: 3.4 and 3.64.
`CCN(CCO)c1ccc(N=Nc2ccc([N+](=O)[O-])cc2)cc1` [Compound 57019]: the “Activity 5 uM” value was found to be 5.388 and the “Activity 10 uM” value is 5.441.
In the same order, the values of `CCN(CC)c1ccc(C(O)C2=CC(=O)c3ccccc3C2=O)cc1` (stereo not shown) [Compound 58338] are 11.604 and 17.599.
On to `COc1ccc(/C=C/c2ccc3ccccc3n2)cc1O.Cl` [Compound 59070], for which the “Activity 5 uM” value is on record as 6.227 and the “Activity 10 uM” value is 7.423.
For `C[C@]12CC[C@H]3[C@@H](CCC4=CC(=O)CC[C@@H]43)[C@@H]1CC[C@@]2(O)C#CC#C[C@]1(O)CC[C@H]2[C@@H]3CCC4=CC(=O)CC[C@@H]4[C@H]3CC[C@@]21C` [Compound 59465], in that order: 1.8 and 6.8.
In the same order, the values of `CCCCCCCC[N+](C)(CCCCCCCC)CCCCCCCC.[Cl-]` [Compound 61369] are 3 and 4.4.
With `O=c1cc(-c2ccc3ccccc3n2)oc2ccc(Cl)cc12` [Compound 61626], the “Activity 5 uM” value was found to be 2.793 and the “Activity 10 uM” value came out at 3.1685.
In the same order, the values of `CN(C)c1ccc(C=Cc2ccnc3ccccc23)cc1.Cl` [Compound 63346] are 6.234 and 6.8235.
On to `[Cl][Hg][Cl].c1cnccn1` [Compound 65429], for which the “Activity 2.5 uM” value is listed as 3.49.
Consider `S=P(Sc1ccccc1)(Sc1ccccc1)Sc1ccccc1` [Compound 65486], for which the “Activity 5 uM” value is recorded as 17.496 and the “Activity 10 uM” value is on record as 20.8755.
On to `c1cc[c]([Hg][O]c2cccc3cccnc23)cc1` [Compound 66326], for which the “Activity 10 uM” value is recorded as 5.2.
Consider `Cc1ccc(N=P2(Nc3ccc(C)cc3)N=P(Nc3ccc(C)cc3)(N3CC3)NP(=Nc3ccc(C)cc3)(N3CC3)N2)cc1` (stereo not shown) [Compound 67112], for which the “Activity 5 uM” value was determined as 3.1 and the “Activity 10 uM” value stood at 16.3.
In the same order, the values of `Cc1cc(N(CCCl)CCCl)ccc1N=Nc1ccccc1C(=O)[O-].Cc1cc(N(CCCl)CCCl)ccc1N=Nc1ccccc1C(=O)[O-].[Cu+2]` [Compound 68292] are 7.2 and 18.3.
For `CCCCCCCCCCCC(c1ccccc1)[N+](C)(C)Cc1ccccc1.[Cl-]` (stereo not shown) [Compound 69510], in that order: 5.6 and 10.9.
On to `O=C1C(Cl)=C(Cl)C(=O)N1c1cccc2c(N3C(=O)C(Cl)=C(Cl)C3=O)cccc12` [Compound 69580], for which the “Activity 5 uM” value is 3.5 and the “Activity 10 uM” value was 6.4.
In the same order, the values of `O=C(Nc1cccc(Cl)c1)Nc1cccc(Cl)c1` [Compound 69625] are 6.201 and 4.8565.
For `O=C(CCl)N1c2ccccc2Sc2ccccc21` [Compound 71676], in that order: 2.922 and 4.1015.
In the same order, the values of `Clc1cccc2ccc(-c3cc4ccccc4s3)nc12` [Compound 71689] are 5.724 and 7.139.

These data come from patent US9932300B2, “N,N′-diarylurea compounds and N,N′-diarylthiourea compounds as inhibitors of translation initiation” (President and Fellows of Harvard College, priority 2009, dated 2018).
